From ChEMBL document CHEMBL3621058, “Synthesis and structure-activity studies of the V-ATPase inhibitor saliphenylhalamide (SaliPhe) and simplified analogs” (Bioorg Med Chem Lett, 2015)
The source made the active and inactive calls. The calls are words filed in the database; no cut-off is given here.

Key:
HCC4017 = test: Growth inhibition of human HCC4017 cells assessed as reduction in cell viability at 0.1 nM to 10 uM; format: functional
Bos taurus = organism: Bos taurus; test: Inhibition of purified reconstituted bovine brain V-ATPase at 2 uM
[1] = Inhibition of purified reconstituted bovine brain V-ATPase; parameters: species or system Bos taurus
[2] = Inhibition of V-ATPase (unknown origin); parameters: species or system Homo sapiens

inhibition (Bos taurus) | IC50 [1] [nM] | SMILES | growth inhibition (GI) (HCC4017) | IC50 [2] [nM]
inactive | – | O=C(C#Cc1ccccc1)N/C=C/C[C@H]1C[C@@H](O)CC/C=C/Cc2cc(O)ccc2C(=O)O1 | inactive | –
– | 1000 | O=C(C#Cc1ccccc1)N/C=C/C[C@H]1C[C@@H](O)CC/C=C/Cc2cccc([N+](=O)[O-])c2C(=O)O1 | inactive | –
– | 500 | O=C(C#Cc1ccccc1)N/C=C/C[C@H]1C[C@@H](O)CC/C=C/Cc2cccc(C(F)F)c2C(=O)O1 | inactive | –
– | 5 | O=C(C#Cc1ccccc1)N/C=C/C[C@H]1C[C@@H](O)CC/C=C/Cc2cccc(O)c2C(=O)O1 | Active | –
– | – | CC/C=C\C=C/C(=O)N/C=C/C[C@H]1C[C@@H](O)[C@@H](C)C/C=C/Cc2cccc(O)c2C(=O)O1 [SALICYLIHALAMIDE A] | – | < 1
– | 500 | O=C(C#Cc1ccccc1)N/C=C/C[C@H]1C[C@@H](O)CC/C=C/Cc2cc(F)ccc2C(=O)O1 | inactive | –
– | 3 | O=C(C#Cc1ccccc1)N/C=C/C[C@H]1C[C@@H](O)CC/C=C/Cc2cccc(O)c2C(=O)N1 | Active | –
– | 300 | O=C(C#Cc1ccccc1)N/C=C/C[C@H]1C[C@@H](O)CC/C=C/Cc2cc([N+](=O)[O-])ccc2C(=O)O1 | inactive | –
– | 300 | Nc1cccc2c1C(=O)O[C@@H](C/C=C/NC(=O)C#Cc1ccccc1)C[C@@H](O)CC/C=C/C2 | inactive | –
– | 1000 | O=C(C#Cc1ccccc1)N/C=C/C[C@H]1C[C@@H](O)CC/C=C/Cc2cccc(F)c2C(=O)O1 | inactive | –

SMILES | inhibition (Bos taurus) | IC50 [1] [nM] | growth inhibition (GI) (HCC4017) | IC50 [2] [nM]
C[C@H]1C/C=C/Cc2cccc(O)c2C(=O)O[C@@H](C/C=C/NC(=O)C#Cc2ccccc2)C[C@H]1O [SALIPHENYLHALAMIDE] | – | 1 | Active | –
